{"source": "PubChem BioAssay (NCI)", "system": "MDA-MB-468 breast", "test": "DTP human tumour cell line panel, 48 h", "note": "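Values below derive from 48-hour exposures of cells grown in 96-well plates, with endpoints linearly interpolated between the two concentrations bracketing the appropriate inhibition level. GI50 marks 50% less growth. TGI is the concentration that stops growth completely.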"}
{"smiles": "Cc1[nH]c2ccccc2c1CCCO", "values": [{"measurement": "GI50", "result": "> 100000", "unit": "nM"}, {"measurement": "TGI", "result": "> 100000", "unit": "nM"}]}
{"smiles": "C#CC#CC#CC#CC#CC#CC#CC#CCC1OCC(COC(=O)O[C@@H](C(=O)O[C@H]2C[C@@]3(O)[C@@H](OC(=O)c4ccccc4)[C@@H]4[C@]5(OC(C)=O)CO[C@@H]5C[C@H](O)[C@@]4(C)C(=O)[C@H](OC(C)=O)C(=C2C)C3(C)C)[C@@H](NC(=O)c2ccccc2)c2ccccc2)O1", "note": "(stereo not given in full)", "values": [{"measurement": "GI50", "result": 67, "unit": "nM"}, {"measurement": "TGI", "result": 423, "unit": "nM"}]}
{"smiles": "Cc1cc([N+](=O)[O-])c(NS(=O)(=O)c2cccc(C(=O)O)c2)cc1-c1cccnc1", "values": [{"measurement": "GI50", "result": "> 100000", "unit": "nM"}, {"measurement": "TGI", "result": "> 100000", "unit": "nM"}]}
{"smiles": "Cc1c(Cl)cccc1C(=O)Nc1nc2c(s1)CN(C(=O)c1ccc(C(F)(F)F)cc1)CC2", "values": [{"measurement": "GI50", "result": 36.5, "unit": "nM"}, {"measurement": "TGI", "result": "> 35700", "unit": "nM"}]}
{"smiles": "O=C(Nc1cccc(-n2cc(-c3ccncc3)c(-c3ccc(Cl)c(O)c3)n2)c1)Nc1cc(C(F)(F)F)cc(C(F)(F)F)c1", "values": [{"measurement": "GI50", "result": 264, "unit": "nM"}, {"measurement": "TGI", "result": 2650, "unit": "nM"}]}
{"smiles": "O=C(N/N=C/C=C/c1ccc([N+](=O)[O-])o1)c1cc2ccccc2cc1O", "values": [{"measurement": "GI50", "result": 1360, "unit": "nM"}, {"measurement": "TGI", "result": 3220, "unit": "nM"}]}
{"smiles": "Cc1cc(F)ccc1S(=O)(=O)Nc1cc(-c2c(O)ccc3ccccc23)c(O)c2ccccc12", "values": [{"measurement": "GI50", "result": 1650, "unit": "nM"}, {"measurement": "TGI", "result": 3700, "unit": "nM"}]}
{"smiles": "O=C1c2c(c3c4cc(Br)ccc4[nH]c3c3ccc4ccccc4c23)C(=O)N1CCN1CCNCC1", "values": [{"measurement": "GI50", "result": 1800, "unit": "nM"}, {"measurement": "TGI", "result": 4480, "unit": "nM"}]}
{"smiles": "Cc1ccc(S(=O)(=O)c2c(COC(=O)c3cccc(C)c3)c(-c3ccccc3)nn2C)cc1", "values": [{"measurement": "GI50", "result": "> 100000", "unit": "nM"}, {"measurement": "TGI", "result": "> 100000", "unit": "nM"}]}
{"smiles": "Cc1cc(NCCCN(C)C)c2ccc3c(ccc4c(NCCCN(C)C)cc(C)nc43)c2n1", "values": [{"measurement": "GI50", "result": 153, "unit": "nM"}, {"measurement": "TGI", "result": 312, "unit": "nM"}]}
{"smiles": "Cc1cc(NC(=O)NC(=O)c2ccccc2NC(=O)C(C)N)ccc1Oc1ncc(Br)cn1", "note": "(stereo not given)", "values": [{"measurement": "GI50", "result": "< 10", "unit": "nM"}, {"measurement": "TGI", "result": 28500, "unit": "nM"}]}
{"smiles": "CN(C)CCN1C(=O)c2c(c3c4ccccc4n4c3c3c2c2ccccc2n3C2CC(O)C(O)C4(C)O2)C1=O", "note": "(stereo not given)", "values": [{"measurement": "GI50", "result": 1520, "unit": "nM"}, {"measurement": "TGI", "result": 5650, "unit": "nM"}]}
{"smiles": "O=C1OCC2=C1C(c1cccc(Cl)c1)c1cc3c(cc1N2CCO)OCCO3", "note": "(stereo not given)", "values": [{"measurement": "GI50", "result": 26.5, "unit": "nM"}, {"measurement": "TGI", "result": 516, "unit": "nM"}]}
{"smiles": "CC1=C(c2cccc(O)c2)[C@H](c2ccc(OCCN3CC(CF)C3)cc2)Oc2ccc(O)cc21", "values": [{"measurement": "GI50", "result": 2400, "unit": "nM"}, {"measurement": "TGI", "result": 6240, "unit": "nM"}]}
{"smiles": "C=C(C)[C@@H]1CC[C@]2(C(=O)N[C@H](CO)Cc3ccccc3)CC[C@]3(C)[C@H](CC[C@@H]4[C@@]5(C)CCCNC(C)(C)[C@@H]5CC[C@]43C)[C@@H]12", "values": [{"measurement": "GI50", "result": 1520, "unit": "nM"}, {"measurement": "TGI", "result": 3030, "unit": "nM"}]}
{"smiles": "Cn1ncnc1[C@H]1c2n[nH]c(=O)c3cc(F)cc(c23)N[C@@H]1c1ccc(F)cc1", "values": [{"measurement": "GI50", "result": 1420, "unit": "nM"}, {"measurement": "TGI", "result": "> 100000", "unit": "nM"}]}
{"smiles": "COc1ccc(C/C(C)=C(/c2ccc(OCCN3CCCCC3)cc2)c2ccc(OC(=O)NCc3ccccc3)cc2)cc1", "values": [{"measurement": "GI50", "result": 400, "unit": "nM"}, {"measurement": "TGI", "result": 789, "unit": "nM"}]}
{"smiles": "COc1cccc(-c2c[nH]c3c(N/N=C/c4ccncc4)ncnc23)c1", "values": [{"measurement": "GI50", "result": 848, "unit": "nM"}, {"measurement": "TGI", "result": 3890, "unit": "nM"}]}
{"smiles": "CC1=C(C(=O)Nc2ccc3n[nH]c(C)c3c2)C(c2ccc(C(F)(F)F)cc2)CC(=O)N1", "note": "(stereo not given)", "values": [{"measurement": "GI50", "result": 7090, "unit": "nM"}, {"measurement": "TGI", "result": "> 25000", "unit": "nM"}]}
{"smiles": "COc1ccc2c(c1)NC1=C(C(=O)OC1)C2c1cc(OC)c2c(c1)OCO2", "note": "(stereo not given)", "values": [{"measurement": "GI50", "result": "< 15.4", "unit": "nM"}, {"measurement": "TGI", "result": 61, "unit": "nM"}]}
